Experimental data: ChEMBL document CHEMBL1909046, “DrugMatrix in vitro pharmacology data”

Experiments:
[1] = DRUGMATRIX: Phosphodiesterase PDE3 enzyme inhibition (substrate: [3H]cAMP + cAMP); format: tissue-based, Homo sapiens; details: platelet; Not Active = under 50% inhibition at 10 µM
[2] = target: Tyrosine-protein kinase Fyn (Homo sapiens, UniProt P06241); test: biochemical; format: cell-based, Insect cells;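 note: enzymatic inhibition of Fyn kinase activity measured with Poly(Glu:Tyr) as the phosphorylation substrate; in other assays of this panel Not Active means under 50% inhibition at 10 µM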
Chain of Tyrosine-protein kinase Fyn (P06241 whole entry): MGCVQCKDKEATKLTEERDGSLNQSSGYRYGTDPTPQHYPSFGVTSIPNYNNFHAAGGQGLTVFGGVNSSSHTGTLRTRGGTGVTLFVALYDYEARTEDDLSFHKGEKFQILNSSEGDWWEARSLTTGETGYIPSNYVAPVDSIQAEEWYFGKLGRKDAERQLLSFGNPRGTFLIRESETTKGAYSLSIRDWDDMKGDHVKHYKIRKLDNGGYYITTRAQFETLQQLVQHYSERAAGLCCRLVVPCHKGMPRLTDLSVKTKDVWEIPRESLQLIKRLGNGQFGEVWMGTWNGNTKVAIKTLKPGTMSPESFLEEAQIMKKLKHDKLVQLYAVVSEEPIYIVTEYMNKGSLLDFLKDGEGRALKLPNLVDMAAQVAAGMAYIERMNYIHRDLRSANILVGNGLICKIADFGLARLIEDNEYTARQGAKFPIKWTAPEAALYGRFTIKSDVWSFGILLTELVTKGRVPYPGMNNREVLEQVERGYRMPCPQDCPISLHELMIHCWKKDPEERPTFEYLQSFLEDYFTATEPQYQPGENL

[3] = target: Receptor tyrosine-protein kinase erbB-2 (Homo sapiens, UniProt P04626); test: biochemical; format: cell-based, Insect cells;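 note: inhibition of HER2 kinase enzyme activity, measured with Poly(Glu:Tyr) as the phosphorylation substrate; in other assays of this panel Not Active means under 50% inhibition at 10 µM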
Chain of Receptor tyrosine-protein kinase erbB-2 (P04626 whole entry): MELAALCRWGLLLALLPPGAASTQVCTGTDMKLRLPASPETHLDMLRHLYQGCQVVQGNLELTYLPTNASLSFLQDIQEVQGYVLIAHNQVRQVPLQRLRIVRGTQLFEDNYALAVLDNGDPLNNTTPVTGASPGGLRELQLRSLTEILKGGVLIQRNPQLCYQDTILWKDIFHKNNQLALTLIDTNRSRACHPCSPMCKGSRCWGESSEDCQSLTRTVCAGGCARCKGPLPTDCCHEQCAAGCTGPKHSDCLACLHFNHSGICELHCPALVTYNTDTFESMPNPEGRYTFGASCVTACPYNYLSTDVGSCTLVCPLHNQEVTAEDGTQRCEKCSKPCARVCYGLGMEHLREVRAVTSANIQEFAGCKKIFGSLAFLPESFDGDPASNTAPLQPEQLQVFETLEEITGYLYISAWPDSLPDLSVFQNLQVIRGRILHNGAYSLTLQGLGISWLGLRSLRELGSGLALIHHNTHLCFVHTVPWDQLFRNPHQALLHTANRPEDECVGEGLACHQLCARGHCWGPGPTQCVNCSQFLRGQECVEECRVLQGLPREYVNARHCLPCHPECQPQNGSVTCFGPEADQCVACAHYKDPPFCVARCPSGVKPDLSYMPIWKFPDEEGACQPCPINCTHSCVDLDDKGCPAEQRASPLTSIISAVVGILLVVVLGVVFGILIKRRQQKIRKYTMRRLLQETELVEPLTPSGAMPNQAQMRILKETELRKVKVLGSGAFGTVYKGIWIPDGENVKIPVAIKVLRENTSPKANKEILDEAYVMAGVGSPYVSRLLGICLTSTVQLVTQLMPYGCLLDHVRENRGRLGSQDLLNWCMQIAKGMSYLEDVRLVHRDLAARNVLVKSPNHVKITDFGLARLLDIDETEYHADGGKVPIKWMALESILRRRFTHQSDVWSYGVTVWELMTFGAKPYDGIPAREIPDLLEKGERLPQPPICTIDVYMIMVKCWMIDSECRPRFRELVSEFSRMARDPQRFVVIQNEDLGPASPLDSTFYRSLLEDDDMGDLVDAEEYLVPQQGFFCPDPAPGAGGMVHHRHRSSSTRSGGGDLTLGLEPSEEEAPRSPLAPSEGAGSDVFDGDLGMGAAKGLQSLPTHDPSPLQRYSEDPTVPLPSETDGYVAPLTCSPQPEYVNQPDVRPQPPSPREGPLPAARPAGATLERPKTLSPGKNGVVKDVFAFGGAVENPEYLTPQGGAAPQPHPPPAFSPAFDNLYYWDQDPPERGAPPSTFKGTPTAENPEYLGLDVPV

Adenosine receptor A3 = target: T1, Adenosine receptor A3 (Homo sapiens, UniProt P0DMS8); format: cell membranes, CHO-K1, Membrane; details: for Ki: read-out: Ki;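 for all read-outs here: radioligand binding assay with AB-MECA serving as the labeled ligand; in other assays of this panel Not Active means under 50% inhibition at 10 µM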
T1 sequence (P0DMS8 whole entry): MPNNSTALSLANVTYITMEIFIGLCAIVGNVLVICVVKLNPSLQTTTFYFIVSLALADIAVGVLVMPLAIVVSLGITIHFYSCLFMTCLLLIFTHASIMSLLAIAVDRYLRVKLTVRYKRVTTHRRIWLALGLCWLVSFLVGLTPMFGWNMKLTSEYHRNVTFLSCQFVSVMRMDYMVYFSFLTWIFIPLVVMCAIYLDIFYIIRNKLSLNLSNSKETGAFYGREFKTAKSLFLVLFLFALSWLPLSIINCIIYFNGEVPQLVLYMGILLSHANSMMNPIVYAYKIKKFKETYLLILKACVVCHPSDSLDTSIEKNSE

[4] = target: T2, C-C chemokine receptor type 4 (Homo sapiens, UniProt P51679); format: cell membranes, Membrane; details: chem-1; note: in other assays of this panel Not Active means under 50% inhibition at 10 µM
T2 sequence (P51679 whole entry): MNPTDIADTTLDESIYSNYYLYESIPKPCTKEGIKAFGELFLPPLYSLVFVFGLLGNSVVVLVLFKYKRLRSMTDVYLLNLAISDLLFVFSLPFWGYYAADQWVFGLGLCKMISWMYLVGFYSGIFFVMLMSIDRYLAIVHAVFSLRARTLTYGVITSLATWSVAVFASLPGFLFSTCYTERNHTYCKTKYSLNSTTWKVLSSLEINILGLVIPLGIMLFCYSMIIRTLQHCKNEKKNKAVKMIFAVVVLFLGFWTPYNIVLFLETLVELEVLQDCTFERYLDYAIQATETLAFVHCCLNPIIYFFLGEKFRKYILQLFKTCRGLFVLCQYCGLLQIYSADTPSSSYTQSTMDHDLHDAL

Vasopressin V1a receptor = Vasopressin V1a receptor (Homo sapiens, UniProt P37288); format: cell membranes, Membrane; details: hek293; note: in other assays of this panel Not Active means under 50% inhibition at 10 µM
Chain of Vasopressin V1a receptor (P37288 whole entry): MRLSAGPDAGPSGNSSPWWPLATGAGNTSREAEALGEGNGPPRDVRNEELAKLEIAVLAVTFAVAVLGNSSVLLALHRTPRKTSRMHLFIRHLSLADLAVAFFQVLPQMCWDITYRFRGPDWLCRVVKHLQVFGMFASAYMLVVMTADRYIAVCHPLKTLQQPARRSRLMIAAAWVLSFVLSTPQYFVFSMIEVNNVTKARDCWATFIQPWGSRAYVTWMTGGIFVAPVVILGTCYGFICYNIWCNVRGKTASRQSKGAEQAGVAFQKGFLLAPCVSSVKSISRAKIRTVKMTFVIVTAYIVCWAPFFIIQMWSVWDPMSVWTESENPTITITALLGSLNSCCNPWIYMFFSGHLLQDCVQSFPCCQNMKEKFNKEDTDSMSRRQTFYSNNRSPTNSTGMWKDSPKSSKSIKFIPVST

Row | SMILES | IC50 [1] | Ki [1] | IC50 ([2]; insect cells) | IC50 ([3]; read-out: IC50) [µM] | IC50 (Adenosine receptor A3; read-out: IC50) [µM] | Ki (Adenosine receptor A3) [µM] | IC50 [4] | IC50 (Vasopressin V1a receptor) | IC50 ([3]; insect cells) | IC50 (Adenosine receptor A3; cho-k1) | IC50 ([2]; read-out: IC50) [µM]
1 | CCOc1nc2cccc(C(=O)O)c2n1Cc1ccc(-c2ccccc2-c2nnn[nH]2)cc1 | Not Active | Not Active | Not Active | 5.95 | 1.22 | 0.69 | Not Active | Not Active |  |  | 
2 | O=C(O)CCCc1cccs1 | Not Active | Not Active | Not Active |  |  |  | Not Active | Not Active | Not Active | Not Active | 
3 | COc1ccccc1N | Not Active | Not Active | Not Active |  |  |  | Not Active | Not Active | Not Active | Not Active | 
4 | O=C(c1ccccc1F)N1CCC(Cc2ccccc2)CC1 | Not Active | Not Active | Not Active |  |  |  | Not Active | Not Active | Not Active | Not Active | 
5 | Cc1c(O)cccc1C(=O)N[C@@H](CSc1ccccc1)[C@H](O)CN1C[C@H]2CCCC[C@H]2C[C@H]1C(=O)NC(C)(C)C | Not Active | Not Active |  |  | 14.8 | 8.36 | Not Active | Not Active | Not Active |  | 7.97
6 | CC(O)COC[C@H]1O[C@@H]2O[C@H]3[C@H](O)[C@@H](O)[C@@H](O[C@H]4[C@H](O)[C@@H](O)[C@@H](O[C@H]5[C@H](O)[C@@H](O)[C@@H](O[C@H]6[C@H](O)[C@@H](O)[C@@H](O[C@H]7[C@H](O)[C@@H](O)[C@@H](O[C@H]8[C@H](O)[C@@H](O)[C@@H](O[C@H]1[C@H](O)[C@H]2O)O[C@@H]8COCC(C)O)O[C@@H]7COCC(C)O)O[C@@H]6COCC(C)O)O[C@@H]5COCC(C)O)O[C@@H]4COCC(C)O)O[C@@H]3COCC(C)O (stereo partly drawn) [2-HYDROXYPROPYL-BETA-CYCLODEXTRIN] | Not Active | Not Active |  |  |  |  | Not Active | Not Active | Not Active | Not Active | 3.04
7 | NC(=O)c1cccc(N)c1 [3-AMINOBENZAMIDE] | Not Active | Not Active | Not Active |  |  |  | Not Active | Not Active | Not Active | Not Active | 
8 | C[C@H]1O[C@H](O[C@H]2[C@H](O)[C@@H](O)[C@@H](O[C@H]3[C@H](O)[C@@H](O)C(O)O[C@@H]3CO)O[C@@H]2CO)[C@H](O)[C@@H](O)[C@@H]1N[C@H]1C=C(CO)[C@@H](O)[C@H](O)[C@H]1O (some centres not stated) [ACARBOSE] | Not Active | Not Active | Not Active |  |  |  | Not Active | Not Active | Not Active | Not Active | 
9 | CC[C@H]1[C@@H]2C[C@H]3[C@@H]4N(C)c5ccccc5[C@]45C[C@@H]([C@@H]2[C@H]5O)N3[C@@H]1O [AJMALINE] | Not Active | Not Active | Not Active |  |  |  | Not Active | Not Active | Not Active | Not Active | 
10 | NC12CC3CC(CC(C3)C1)C2 [AMANTADINE] | Not Active | Not Active | Not Active |  |  |  | Not Active | Not Active | Not Active | Not Active | 
11 | NCCCNCCSP(=O)(O)O [AMIFOSTINE] | Not Active | Not Active | Not Active |  |  |  | Not Active | Not Active | Not Active | Not Active | 
12 | CN(C)CCC=C1c2ccccc2CCc2ccccc21 [AMITRIPTYLINE] | Not Active | Not Active | Not Active |  |  |  | Not Active | Not Active | Not Active | Not Active | 
13 | CC(=O)Oc1ccccc1C(=O)O [ASPIRIN] | Not Active | Not Active | Not Active |  |  |  | Not Active | Not Active | Not Active | Not Active | 
14 | CC(C)c1c(C(=O)Nc2ccccc2)c(-c2ccccc2)c(-c2ccc(F)cc2)n1CC[C@@H](O)C[C@@H](O)CC(=O)O [ATORVASTATIN] | Not Active | Not Active | Not Active |  |  |  | Not Active | Not Active | Not Active | Not Active | 
15 | CC(=O)OC[C@H]1O[C@@H](n2ncc(=O)[nH]c2=O)[C@H](OC(C)=O)[C@@H]1OC(C)=O [AZARIBINE] | Not Active | Not Active | Not Active |  |  |  | Not Active | Not Active | Not Active | Not Active | 
